In ChEMBL document CHEMBL1145649, “Novel HCV NS5B polymerase inhibitors derived from 4-(1',1'-dioxo-1',4'-dihydro-1'lambda6-benzo[1',2',4']thiadiazin-3'-yl)-5-hydroxy-2H-pyridazin-3-ones: Part 4. Optimization of DMPK properties” (Bioorg Med Chem Lett, 2008):

Experiments:
[1] = Fraction absorbed in cynomolgus monkey at 1 mg/kg, po; format: ADME, organism-based, Macaca fascicularis; design: dose 1 mg/kg, route oral; details: in vivo, read-out: Fabs
[2] = Oral bioavailability in cynomolgus monkey at 1 mg/kg; format: ADME, organism-based, Macaca fascicularis; details: in vivo
[3] = tested on: Cynomolgus monkey; assay: AUC (0 to infinity) in cynomolgus monkey at 1 mg/kg, po; format: ADME, organism-based, Macaca fascicularis, Plasma; design: time infinity, dose 1 mg/kg, route oral; details: in vivo
[4] = tested on: Cynomolgus monkey; assay: AUC (0 to infinity) in cynomolgus monkey at 1 mg/kg, iv; format: ADME, organism-based, Macaca fascicularis, Plasma; design: time infinity, dose 1 mg/kg, route intravenous; details: in vivo
[5] = Tmax in cynomolgus monkey at 1 mg/kg, po; format: ADME, organism-based, Macaca fascicularis; design: dose 1 mg/kg, route oral; details: in vivo
[6] = Volume of distribution at steady state in cynomolgus monkey at 1 mg/kg, iv; format: ADME, organism-based, Macaca fascicularis; design: dose 1 mg/kg, route intravenous; details: in vivo, read-out: Vdss
[7] = Cmax in cynomolgus monkey at 1 mg/kg, po; format: ADME, organism-based, Macaca fascicularis; design: dose 1 mg/kg, route oral; details: in vivo
[8] = physchem; details: buffer, pH 7.4
[9] = in vitro; details: human, Caco-2

CC(C)(C)CCn1nc(CC2CCCC2)c(O)c(C2=Nc3ccc(NS(C)(=O)=O)cc3S(=O)(=O)N2)c1=O
Fa [1]: 18% | bioavailability [2]: 10% | AUC [3]: 89 ng·h/mL | AUC [4]: 851 ng·h/mL | Tmax [5]: 6 h | Vd [6]: 0.57 L/kg | Cmax [7]: 13 ng/mL | solubility [8]: > 100 µM

CC(C)(C)CCn1nc(C2CC2)c(O)c(C2=Nc3ccc(NS(C)(=O)=O)cc3S(=O)(=O)N2)c1=O
Fa [1]: 5% | bioavailability [2]: 4% | solubility [8]: > 50 µM | Papp A→B at 10 µM [9]: 0.95 ×10⁻⁶ cm/s

CC(C)CCn1nc(CC2CCCC2)c(O)c(C2=NS(=O)(=O)c3cc(NS(C)(=O)=O)ccc3N2)c1=O
Fa [1]: 18% | bioavailability [2]: 15% | AUC [3]: 370 ng·h/mL | AUC [4]: 2540 ng·h/mL | Tmax [5]: 1.3 h | Vd [6]: 0.15 L/kg | Cmax [7]: 113 ng/mL

CC(C)(C)CCn1nc(C2=CCCC2)c(O)c(C2=NS(=O)(=O)c3cc(NS(C)(=O)=O)ccc3N2)c1=O
Fa [1]: 7% | bioavailability [2]: 4%

CC(C)(C)CCn1nc(CC(C)(C)C)c(O)c(C2=NS(=O)(=O)c3cc(NS(C)(=O)=O)ccc3N2)c1=O
Fa [1]: 4% | bioavailability [2]: 4% | solubility [8]: > 100 µM | Papp A→B at 10 µM [9]: 0.15 ×10⁻⁶ cm/s

CC(C)CCn1nc(CC(C)(C)C)c(O)c(C2=NS(=O)(=O)c3cc(NS(C)(=O)=O)ccc3N2)c1=O
Fa [1]: 8% | bioavailability [2]: 6% | solubility [8]: > 100 µM | Papp A→B at 10 µM [9]: 0.29 ×10⁻⁶ cm/s

CC(C)CCn1nc(C(C)(C)C)c(O)c(C2=NS(=O)(=O)c3cc(NS(C)(=O)=O)ccc3N2)c1=O
Fa [1]: 17% | bioavailability [2]: 15% | AUC [3]: 611 ng·h/mL | AUC [4]: 3980 ng·h/mL | Tmax [5]: 1.5 h | Vd [6]: 0.17 L/kg | Cmax [7]: 294 ng/mL | solubility [8]: > 100 µM | Papp A→B at 10 µM [9]: 0.58 ×10⁻⁶ cm/s

CC(C)CCn1nc(-c2cccs2)c(O)c(C2=Nc3ccc(NS(C)(=O)=O)cc3S(=O)(=O)N2)c1=O
Fa [1]: 4% | AUC [3]: 30 ng·h/mL | AUC [4]: 1330 ng·h/mL | Tmax [5]: 6.3 h | Vd [6]: 0.18 L/kg | Cmax [7]: 3.8 ng/mL | solubility [8]: > 100 µM

CS(=O)(=O)Nc1ccc2c(c1)S(=O)(=O)N=C(c1c(O)c(C3=CCCC3)nn(CCC3CC3)c1=O)N2
Fa [1]: 6% | bioavailability [2]: 4% | solubility [8]: > 100 µM | Papp A→B at 10 µM [9]: 0.59 ×10⁻⁶ cm/s

Cc1ccc(-c2nn(Cc3ccccc3)c(=O)c(C3=Nc4ccccc4S(=O)(=O)N3)c2O)s1
Fa [1]: 36% | AUC [3]: 3650 ng·h/mL | AUC [4]: 10900 ng·h/mL | Tmax [5]: 2 h | Vd [6]: 0.21 L/kg | Cmax [7]: 673 ng/mL | solubility [8]: > 80 µM

CC(C)CCn1nc(-c2cccs2)c(O)c(C2=NS(=O)(=O)c3cc(N(C)S(C)(=O)=O)ccc3N2)c1=O
Fa [1]: 33% | AUC [3]: 72 ng·h/mL | AUC [4]: 605 ng·h/mL | Tmax [5]: 6 h | Vd [6]: 0.57 L/kg | Cmax [7]: 11 ng/mL | solubility [8]: > 100 µM

CC(C)=Cc1nn(CCC(C)(C)C)c(=O)c(C2=NS(=O)(=O)c3cc(NS(C)(=O)=O)ccc3N2)c1O
Fa [1]: 2% | bioavailability [2]: 2% | solubility [8]: > 100 µM | Papp A→B at 10 µM [9]: 1 ×10⁻⁶ cm/s

CN(c1ccc2c(c1)S(=O)(=O)N=C(c1c(O)c(-c3cccs3)nn(CCC(C)(C)C)c1=O)N2)S(C)(=O)=O
Fa [1]: 5% | bioavailability [2]: 3% | solubility [8]: > 100 µM | Papp A→B at 10 µM [9]: 0.01 ×10⁻⁶ cm/s

CC(C)(C)Cc1nn(CCC2CC2)c(=O)c(C2=Nc3ccc(NS(C)(=O)=O)cc3S(=O)(=O)N2)c1O
Fa [1]: 7% | bioavailability [2]: 6% | solubility [8]: > 100 µM | Papp A→B at 10 µM [9]: 0.7 ×10⁻⁶ cm/s

CC(C)CCn1nc(CC2CC2)c(O)c(C2=NS(=O)(=O)c3cc(NS(C)(=O)=O)ccc3N2)c1=O
Fa [1]: 9% | bioavailability [2]: 7% | solubility [8]: > 100 µM | Papp A→B at 10 µM [9]: 0.49 ×10⁻⁶ cm/s
